# Experimental data taken from patent publication US8575135B2 (Gilead Sciences, Inc., priority 2011, dated 2013).
# Read-outs that look alike come from different tables or passages of the source.
# Key:
# Assay in all cases: microbe, parasite or virus in culture
# Conditions in all cases: Hepatitis C virus
# [1] = test system: NS5A chimeric genotype 1b Con1 replicon with genotype 3a S52 strain NS5A gene; assay type: cell-based, HCV
# Outline: (§1)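 Con1 1b replicons carrying 3a S52 or 4a ED43 NS5A with Pi-RLuc reporter were transiently transfected into Huh-Lunet cells; 2b MD2b-1 NS5A (M31) in JFH-1 2a backbone with RLuc-Neo, transient or stable.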
# [2] = test system: NS5A chimeric genotype 2a JFH-1 replicon with genotype 2a J6 strain NS5A gene (M31 present); assay type: cell-based, HCV
# [3] = test system: NS5A chimeric genotype 2a JFH-1 replicon with genotype 2b MD2b-1 strain NS5A gene (M31 present); assay type: cell-based, HCV
# Outline: as §1
# [4] = test system: stable HCV 1a RLuc replicon cells (genotype 1a H77 replicon); assay type: cell-based
# [5] = test system: stable HCV 2a JFH-1 Rluc replicon cells (L31 present in NS5A); assay type: cell-based
# [6] = test system: 1a Pi-Rluc replicon with Q30R in genotype 1a NS5A; assay type: cell-based, HCV
# Protocol: Antiviral potency (EC50) was determined using a Renilla luciferase (RLuc)-based HCV replicon reporter assay. […] To perform the assay for genotype 2a (with M31 present in NS5A) or 2b, NS5A chimeric genotype 2a JFH-1 replicons that encodes a RLuc-Neo reporter and either genotype 2a J6 strain NS5A gene or genotype 2b MD2b-1 strain NS5A gene (both with M31 present) respectively, were either transiently transfected (t) into Huh-Lunet cells or were established as stably replicating replicon cells (s) is provided. Either cells were dispensed into 384-well plates for EC50 assays. To perform the assay for genotype 3 and 4, NS5A chimeric genotype 1b Con1 replicons that encodes a Pi-RLuc reporter and either genotype 3a S52 strain NS5A gene or genotype 4a ED43 strain NS5A gene respectively, were transiently transfected (t) into Huh-Lunet cells, which were subsequently dispensed into 384-well plates. Compounds were dissolved in DMSO at a concentration of 10 mM and diluted in DMSO either manually or using an automated pipeting instrument. Serially 3-fold diluted compounds were either manually mixed with cell culture media and added to the seeded cells or directly added to the cells using an automated instrument. […] 72 hours later, cells were lysed and Renilla luciferase activity quantified as recommended by the manufacturer (Promega-Madison, Wis.). Non-linear regression was performed to calculate EC50 values.
# To determine the antiviral potency (EC50) against resistance mutants, resistance mutations, including M28T, Q30R, Q30H, L31M, and Y93C in genotype 1a NS5A and Y93H in genotype 1b NS5A, were introduced individually into either 1a Pi-Rluc or 1b Pi-Rluc replicons by site directed mutagenesis. Replicon RNA of each resistant mutant was transiently transfected into Huh-7-derived cured-51 cells and antiviral potency was determined on these transfected cells as described above.
# [7] = test system: NS5A chimeric genotype 1b Con1 replicon with genotype 4a ED43 strain NS5A gene; assay type: cell-based, HCV
SMILES,EC50 ([1]; read-out: 3a) [nM],EC50 ([1]; read-out: 3a (nM)) [nM],EC50 ([2]; read-out: 2a J6) [nM],EC50 ([2]; read-out: 2a J6 (s) (nM)) [nM],EC50 ([2]; read-out: 2a Jb (t) (nM)) [nM],EC50 ([3]; read-out: 2b) [nM],EC50 ([3]; read-out: 2b (s) (nM)) [nM],EC50 ([3]; read-out: 2b (t) (nM)) [nM],EC50 ([4]; read-out: 1a) [nM],EC50 ([4]; read-out: 1a (nM)) [nM],EC50 ([5]; read-out: 2a JFH) [nM],EC50 ([5]; read-out: 2a JFH (nM)) [nM],EC50 ([6]; read-out: 1a Q30R) [nM],EC50 ([6]; read-out: 1a Q30R (nM)) [nM],EC50 ([7]; read-out: 4a) [nM],EC50 ([7]; read-out: 4a (s) (nM)) [nM],EC50 ([7]; read-out: 4a (t) (nM)) [nM]
COC(=O)N[C@H](C(=O)N1CCC[C@H]1c1ncc(-c2ccc3c(c2)COc2cc4c(ccc5nc([C@@H]6C[C@H](C)CN6C(=O)[C@@H](NC(=O)OC)C(C)C)[nH]c54)cc2-3)[nH]1)C(C)C [Compound 526],< 1,0.018,< 1,1.64,0.443,< 1,0.404,0.132,< 1,0.011,< 1,0.007,< 1,0.095,< 1,0.011,0.011
COC(=O)N[C@H](C(=O)N1[C@@H]2C[C@@H]2C[C@H]1c1nc2ccc3cc4c(cc3c2[nH]1)OCc1cc(-c2cnc([C@@H]3CCCN3C(=O)[C@H](NC(=O)OC)c3ccccc3)[nH]2)ccc1-4)C(C)C [Compound 536],< 1,0.009,< 1,0.154,0.04,< 1,0.037,0.011,< 1,0.008,< 1,0.004,< 1,0.048,< 1,0.01,0.005
COC(=O)N[C@H](C(=O)N1CCC[C@H]1c1ncc(-c2ccc3c(c2)COc2cc4c(ccc5nc([C@@H]6CCCN6C(=O)[C@H](NC(=O)OC)c6ccccc6)[nH]c54)cc2-3)[nH]1)[C@@H](C)OC [Compound 588],< 1,0.027,< 1,0.14,0.038,< 1,0.017,0.012,< 1,0.012,< 1,0.004,< 1,0.087,< 1,,0.019
COC(=O)N[C@H](C(=O)N1[C@@H](C)CC[C@H]1c1ncc(-c2ccc3c(c2)COc2cc4c(ccc5nc([C@@H]6CCCN6C(=O)[C@@H](NC(=O)OC)[C@@H](C)OC)[nH]c54)cc2-3)[nH]1)C(C)C [Compound 603],< 1,0.015,< 1,,0.194,< 1,0.088,0.067,< 1,0.009,< 1,0.007,< 1,0.146,< 1,0.022,
"COC[C@H]1C[C@@H](c2nc3ccc4cc5c(cc4c3[nH]2)OCc2cc(-c3cnc([C@@H]4CCCN4C(=O)[C@H](NC(=O)OC)c4ccccc4)[nH]3)ccc2-5)N(C(=O)[C@@H](NC(=O)OC)C(C)C)C1 [Example MM, methyl {(1R)-2-[(2S)-2-(5-{2-[(2S,4S)-1-{(2S)-2-[(methoxycarbonyl)amino]-3-methylbutanoyl}-4-(methoxymethyl)pyrrolidin-2-yl]-1,11-dihydroisochromeno[4′,3′:6,7]naphtho[1,2-d]imidazol-9-yl}-1H-imidazol-2-yl)pyrrolidin-1-yl]-2-oxo-1-phenylethyl}carbamate]",< 1,0.02,< 1,0.064,0.018,< 1,0.042,0.015,< 1,0.022,< 1,0.007,< 1,0.044,< 1,0.016,0.017
